{"source": "patent US20130171254A1", "about": "“FAST DISSOLVING PHARMACEUTICAL COMPOSITION COMPRISING LORNOXICAM” (ABBOTT HEALTHCARE PRIVATE LIMITED, priority 2009, published 2013)", "key": {"[1]": {"settings": "cited from earlier work"}, "[2]": {"settings": "8 mg dose, acidic conditions such as found in the stomach"}, "[3]": {"settings": "cited from earlier work", "remark": "listed apart in the source"}, "[4]": {"settings": "0.1 N HCl at room temperature (Bertelsen et al U.S. Pat. No. 6,713,089); cited from earlier work"}, "[5]": {"settings": "cited from earlier work", "remark": "listed apart in the source"}}, "note": "Where two headings read alike, the source gives them in different places.", "data": [{"smiles": "CN1C(=C(O)Nc2ccccn2)C(=O)c2sc(Cl)cc2S1(=O)=O", "note": "(stereo in doubt) [lornoxicam, (3E)-6-chloro-3-[hydroxy(pyridin-2-ylamino)methylene]-2-methyl-2,3-dihydro-4H-thieno[2,3-e][1,2]thiazin-4-one 1,1-dioxide]", "values": [{"measurement": "pKa", "setting": "[1]; basic pyrimido group", "value": 5.5}, {"measurement": "pKa", "setting": "[1]", "value": 4.7}, {"measurement": "pKa", "setting": "[1]; enolic group", "value": "1-2"}, {"measurement": "apparent partition coefficient", "setting": "[1]; n-octanol/buffer pH 7.4", "value": 1.8}, {"measurement": "solubility", "setting": "physchem; pH 1.2, simulated gastric fluid", "value": 5.6, "unit": "µg/mL"}, {"measurement": "solubility", "setting": "physchem; water", "value": 10.4, "unit": "µg/mL"}, {"measurement": "volume of acid required for complete dissolution", "setting": "[2]", "value": "more than 1400 ml"}, {"measurement": "synovial fluid: plasma AUC ratios", "setting": "[3]; after administration of 4 mg twice daily", "value": "~0.5"}, {"measurement": "Tmax, range", "setting": "[3]; fasted subjects", "value": "84 to 360", "unit": "min"}, {"measurement": "time to reach peak plasma concentrations (Tmax)", "setting": "[3]; fasted subjects", "value": "around 2.5 hours"}, {"measurement": "half-life", "setting": "[3]; in vivo", "value": "approximately 4 hours"}, {"measurement": "median Tmax", "setting": "[3]; new formulations containing 40% bicarbonate, co-processed intimately (US 20070218128, Bertelsen)", "value": 30, "unit": "min"}, {"measurement": "median Tmax", "setting": "[3]; standard tablets (US 20070218128, Bertelsen)", "value": 150, "unit": "min"}, {"measurement": "solubility", "setting": "[4]", "value": "less than 1 mg/100 ml"}]}, {"smiles": "O=C(O)Cc1ccccc1Nc1c(Cl)cccc1Cl", "note": "[diclofenac]", "values": [{"measurement": "mean Tmax", "setting": "[5]; 25 mg film-coated tablets with bicarbonate", "value": 21.2, "unit": "min"}, {"measurement": "mean Tmax", "setting": "[5]; 50 mg film-coated tablets with bicarbonate", "value": 29.8, "unit": "min"}, {"measurement": "mean Tmax", "setting": "[5]; standard immediate release tablets", "value": 50.8, "unit": "min"}]}]}
